Measurements from US20160000766A1, “HDAC INHIBITORS TO TREAT CHARCOT-MARIE-TOOTH DISEASE” (VIB VZW, priority 2010, published 2016).
“Also recorded” adds a separate entry of the source.

What was measured:
[1] = tested on: DRG neurons isolated from symptomatic HSPB1^S135F mice; assay: Axonal transport of mitochondria in cultured DRG neurons treated in vitro with HDAC inhibitors; type: cell-based, mouse; conditions: for effectiveness on total and moving mitochondria relative to TSA / number of moving mitochondria / total numbers of mitochondria: 12 hours treatment; for effectiveness on total and moving mitochondria relative to TSA: FIG. 8, Panels a and b; for number of moving mitochondria / total numbers of mitochondria: TSA 0.4 μM, tubacin 2 μM, tubastatin A 1 μM, vs DMSO
Protocol: (§1) Panels a and b: Axonal transport of mitochondria was assessed in DRG neurons isolated from symptomatic (eight-month-old) HSPB1^S135F mice after 12 hours incubation with various concentrations (0, 0.25, 0.50 or 1.00 μM) of Tubastatin A. Panel a: Quantification of the total number of mitochondria at various concentrations of Tubastatin A. One-way ANOVA. P>0.05. Panel b: Quantification of the number of moving mitochondria at different concentrations of Tubastatin A. One-way ANOVA. * P<0.05; ** P<0.001; P<0.0001. Panel c: Quantification of the integrated density of the acetylated tubulin signal along neurites at various concentrations of Tubastatin A. n=25 to 30 cells/condition. One-way ANOVA. * P<0.05.
(§2) FIG. 8: HDAC6 inhibition rescues axonal transport defects and restores the CMT2 phenotype. Panels a and b: Axonal transport of mitochondria measured in DRG neurons isolated from ten-month-old HSPB1^S135F-expressing mice after 12 hours of treatment with TSA (0.4 μM), tubacin (2 μM), tubastatin A (1 μM) or an equivalent amount of DMSO. Total number of (Panel a) and number of moving (Panel b) mitochondria (per 200 seconds and per 100 μm) were quantified. n=20 to 30 cells isolated from three different mice for each condition. *P<0.05; **P<0.01; ***P<0.0001. Panels c and d: Western blots of sciatic nerve and spinal cord extracts from symptomatic eight-month-old HSPB1^S135F-expressing mice treated daily for three weeks with TSA (10 mg per kg body weight; Panel c) or tubastatin A (25 mg per kg body weight; Panel d) probed against acetylated tubulin. Equal loading was confirmed with α-tubulin staining. n=3. Panels e and f: Quantifications of optical density (OD) of acetylated tubulin on Western blots of sciatic nerve (Panel e) and spinal cord (Panel f) extracts of symptomatic HSPB1^S135F-expressing mice treated with TSA or tubastatin A. n=3. Panel g: Motor performance on an accelerating rotarod of HSPB1^S135F-expressing mice treated for three weeks with TSA or tubastatin A. Panels h and i: Effect of the TSA or tubastatin A treatments of HSPB1^S135F-expressing mice on the amplitudes of CMAPs (Panel h) or SNAPs (Panel i). n=3 to 6 mice per group. […]; **P<0.001; ***P<0.0001. One-way ANOVA was used to analyze the data in Panels a, b, and e through i. Data are presented as means±s.e.m.
(§3) It has previously been shown that the intracellular distribution of specific cargoes, such as mutant HSPB1 itself, but also neurofilament and p150, was disturbed in cortical neurons transfected with HSPB1^P182L (ref. 12). In order to study effects of mutant HSPB1 on axonal transport, dorsal root ganglion (DRG) neurons from adult transgenic mice were isolated and analyzed mitochondrial transport in these neurons after two days in culture. Mitochondrial movement was visualized by loading DRG neurons with a selective mitochondrial marker (MITOTRAcKER®) and by live video imaging (FIG. 6, Panel a). Kymographs resulting from time compression of video images were used to quantify the total number of mitochondria present in the neurites and to discriminate antero- and retrogradely moving from stationary mitochondria (FIG. 6, Panel a, right-side panels).
Treatment of DRG neurons isolated from symptomatic HSPB1^[…]-expressing mice with TSA, tubacin or tubastatin A increased total numbers of mitochondria FIG. 8, Panel a) and restored the number of moving mitochondria (FIG. 8, Panel b).

[2] = tested on: acetylated tubulin; assay: Acetylated tubulin signal along neurites of cultured DRG neurons; type: cell-based, mouse; conditions: 12 hours incubation; 0, 0.25, 0.50 or 1.00 μM
Protocol: as §1

[3] = tested on: acetylated α-tubulin; assay: Western blots of acetylated α-tubulin in sciatic nerve and spinal cord of treated mice; type: in vivo, mouse; conditions: daily for 21 days, TSA 10 mg per kg, tubastatin A 25 mg per kg; for acetylated α-tubulin amounts in peripheral nerves: sciatic nerve
Protocol: as §2
Next, symptomatic HSPB1^S135F-expressing mice were treated for 21 days with either a nonspecific or a specific HDAC6 inhibitor.

[4] = tested on: symptomatic HSPB1^S135F-expressing mice; assay: Motor performance on accelerating rotarod of treated HSPB1^S135F-expressing mice; type: in vivo, mouse; conditions: for motor performance (accelerating rotarod): treated for three weeks, TSA 10 mg per kg, tubastatin A 25 mg per kg; for CMT2 phenotype at the behavioral and electrophysiological levels: treatment of mutant HSPB1 mice (Example 9)
Protocol: as §2
Next, general motor performance was assessed using an accelerating rotarod. All mice could stay on the rotarod (300 seconds) until the age of six months. From that age on, both mutant HSPB1 lines started to fail on the rotarod test and a progressive reduction in performance was observed over time (P<0.0001; FIG. 1, Panel c).
(§4) It was also observed that the loss of acetylcholine-receptor clusters at the end plates in gastrocnemius muscle was restored (FIG. 9, Panel a) and that the level of denervation of the remaining neuromuscular junctions was decreased (FIG. 9, Panel b). These observations indicate that increasing acetylated α-tubulin abundance in peripheral nerves leads to re-innervation of muscles.

[5] = tested on: symptomatic HSPB1^S135F-expressing mice; assay: Nerve conduction studies (CMAP and SNAP amplitudes) in treated mice; type: in vivo, mouse; conditions: treated for three weeks; TSA 10 mg per kg, tubastatin A 25 mg per kg
Protocol: as §2
Nerve conduction studies are routinely done on CMT patients to discriminate demyelinating (type 1) from axonal (type 2) forms, as well as to assess whether patients show either a mixed sensorimotor (CMT2) or a pure motor neuropathy (distal HMN). Therefore, nerve conduction studies were performed on transgenic HSPB1 mice using sub-dermal electrodes, either at the level of the gastrocnemius muscle to measure compound muscle action potentials (CMAPs), or in the distal end of the tail to record sensory nerve action potentials (SNAPs). […] The decrease in CMAP amplitudes in function of age was more pronounced in HSPB1^P182L compared to HSPB1^S135F mice as assessed by the slopes (slopeS135F=−4.66±0.32; slopeP182L=−6.23±0.93; P=0.004; FIG. 4, Panel c). CMAP latencies were unaffected, confirming the axonal nature of the motor neuropathy in both mutant HSPB1 lines (FIG. 4, Panel d).
It was also observed that the loss of acetylcholine-receptor clusters at the end plates in gastrocnemius muscle was restored (FIG. 9, Panel a) and that the level of denervation of the remaining neuromuscular junctions was decreased (FIG. 9, Panel b). […]

[6] = tested on: symptomatic HSPB1^S135F-expressing mice; assay: Innervation level of the gastrocnemius muscle (neuromuscular junctions) in treated mice; type: in vivo, mouse; conditions: treated for three weeks; eight-month-old mice
Protocol: (§5) FIG. 9: TSA or tubastatin A treatment leads to muscle reinnervation and rescues axonal transport defects. Panels a and b: Effect of vehicle (DMSO), TSA or tubastatin A treatment on the innervation level of the gastrocnemius muscle in symptomatic, eight-month-old HSPB1^S135F-expressing mice. The number of visible neuromuscular junctions (NMJs) per axon in each field of view (Panel a) and the relative quantity of denervated neuromuscular junctions (Panel b) were determined after staining gastrocnemius muscle with antibodies against α-bungarotoxin and neurofilament heavy chain. n=2 or 3 mice per condition. ***P<0.0001. Panels c and d: Axonal transport of mitochondria measured in cultured DRG neurons isolated from symptomatic HSPB1^S135F-expressing mice after three weeks of treatment with TSA or tubastatin A. Total number (Panel c) and number of moving mitochondria (Panel d) were quantified (per 200 seconds and 100 μm). n=20 to 25 cells isolated from three different mice in each condition. *P<0.05; ***P<0.0001. One-way ANOVA was used to analyze the data. Tukey's HSD test was used for post hoc analysis in Panels a through d. Data are presented as means±s.e.m.
as §4

[7] = tested on: DRG neurons isolated from symptomatic HSPB1^S135F-expressing mice; assay: Ex vivo axonal transport of mitochondria in DRG neurons isolated from treated mice; set-up: species or system mouse; conditions: after three weeks of in vivo treatment
Protocol: as §5, §3
Finally, we measured ex vivo axonal transport in DRG neurons isolated from treated mice.

SMILES	axonal transport of mitochondria, dose dependence ([1]; 12 hours incubation, 0, 0.25, 0.50 or 1.00 μM, eight-month-old HSPB1^S135F mice)	effectiveness on total and moving mitochondria relative to TSA [1]	number of moving mitochondria [1]	total numbers of mitochondria [1]	acetyl-tubulin levels in vitro (integrated density along neurites) [2]	overall α-tubulin abundance [3]	acetylated α-tubulin amounts in peripheral nerves [3]	motor performance (accelerating rotarod) [4]	CMT2 phenotype at the behavioral and electrophysiological levels [4]	CMAP amplitudes [5]	SNAP amplitudes [5]	level of denervation of the remaining neuromuscular junctions [6]	loss of acetylcholine-receptor clusters at the end plates in gastrocnemius muscle [6]	mitochondrial motility, overall rescue and comparison with TSA (ex vivo) [7]	number of moving mitochondria (ex vivo) [7]	total number of mitochondria (ex vivo) [7]	acetylated α-tubulin amounts in spinal cord [3]
CN1CCc2c(c3ccccc3n2Cc2ccc(C(=O)NO)cc2)C1 [tubastatin A]	dose-dependently rescued	more effective compared to TSA	restored	increased	increased	did not affect	significant increase	significantly increased	partially restored	increased	increased	decreased	restored	more effective than TSA; also recorded: complete rescue	increased significantly	increased	
O=C(CCCCCCC(=O)Nc1ccc([C@H]2O[C@@H](CSc3nc(-c4ccccc4)c(-c4ccccc4)o3)C[C@@H](c3ccc(CO)cc3)O2)cc1)NO [tubacin]		more effective compared to TSA	restored	increased													
CC(/C=C/C(=O)NO)=C\[C@@H](C)C(=O)c1ccc(N(C)C)cc1 [TSA, Trichostatin A]			restored	increased		did not affect	significant increase	significantly increased	partially restored	increased	increased	decreased	restored		increased significantly		also increased
